Measurements from the METLIN SMRT retention time set (Domingo-Almenara et al. 2019).

assay: gradient 5% acetonitrile 3 min, to 50% in 2 min, to 85% in 15 min, held 3 min, 100 µL/min; details: column: Zorbax Extend-C18 2.1 x 50 mm; eluents: water / acetonitrile, 0.1% formic acid
Summary of the method: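 Pure standards were analyzed in mixtures of ~100 molecules using HPLC coupled to a quadrupole time-of-flight mass spectrometer, in both positive and negative ionization mode. Separation used a Zorbax Extend-C18 column (2.1 × 50 mm, 1.8 μm) at 100 μL/min, with water and acetonitrile each containing 0.1% formic acid. Dead and dwell volumes were 40 μL and 900 μL, and data were collected over 3 months. Retention time was read from computationally picked adduct peaks, each inspected manually.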

RP-LC retention time | Compound
788 s | Cc1cc(CS(=O)(=O)c2ccccc2)cc(OCc2ccc(CN3CCC[C@@H]3CO)cc2)c1
954 s | C=CCNC(=O)c1nnn(Cc2ccc(Cl)cc2)c1-n1cccc1
1090 s | CCCn1cc(C(=O)Nc2ccc(C)cc2)c(S(=O)(=O)N2CCSCC2)n1
1020 s | CCc1ccc(C(C)NS(=O)(=O)c2cc3c(s2)CCN(C(=O)C2CCC2)C3)cc1 (stereo unspecified)
580 s | CC(C)c1nccn1C1CN(C(=O)c2ccc3[nH]ccc3c2)C1
584 s | COc1ccc(NC(=O)NC2CCN(c3cc(N4CCCC4)cnn3)C2)cc1Cl (stereo unspecified)
941 s | CCc1ccc(C(=O)N2CCC(COc3ccc(C(=O)NC(C)C)cc3)CC2)cc1
814 s | CCOc1ccc(-n2nc(CO)c(C(=O)NC3CC3)n2)cc1
813 s | CN(C)c1cc(-n2cnc(C(=O)NCc3ccccc3Cl)c2)ncn1
799 s | CC(C)n1cnc(S(=O)(=O)N2CCC(C(=O)N3CCN(c4ccc(F)cc4)CC3)CC2)c1
635 s | CCC(=O)N(C1CCOCC1)C1CCN(Cc2cccc(Br)c2)CC1
645 s | COCCNc1c(C(=O)OC)c(=O)[nH]c2c(Cl)cccc12
722 s | CCC(=O)N1CCc2cc(N3CC(C(=O)NCc4ccccc4F)CC3=O)ccc21 (stereo unspecified)
715 s | Cc1ccsc1CN1CC(Oc2ccc(-c3noc(-c4ccncc4)n3)cc2)C1
899 s | CC(C)NC(=O)c1ccc(OCC2CCN(C(=O)c3ccccc3C(F)(F)F)CC2)cc1
994 s | O=C(Nc1cc(F)ccc1Cl)c1csc(-c2ccc(N3CCCC3)nc2)n1
662 s | CCn1ccc(C(=O)N2CCC[C@H]2c2nc(-c3ccccc3)n[nH]2)n1
752 s | COc1ccc(CNC(=O)N2CC=C(c3cn(C)c4ncccc34)CC2)cc1
701 s | Cc1ccc2c(c1)OCC(=O)N2CC(=O)NC1CC1
746 s | COc1ccc(NC(=O)C2CCCN(c3cnc4nccnc4c3)C2)cc1Cl (stereo unspecified)
605 s | COc1ccc(NC(=O)C2CCN(c3cncnc3N3CCOCC3)CC2)cc1
650 s | COc1ccc(C(=O)N2CCC(Oc3cc(N(C)C)ncn3)C2)cc1 (stereo unspecified)
909 s | CCc1noc(NC(C)=O)c1-c1ccc(C)c(S(=O)(=O)NC2CCCCCC2)c1
591 s | COc1ccc(S(=O)(=O)N2CCCC(C(=O)NCc3ccncc3)C2)cc1OC (stereo unspecified)
639 s | CCOc1ccccc1NC(=O)N1CC(n2ccnc2C)C1
620 s | CN(C)CCNC(=O)Cn1ncn2nc(-c3ccccc3)cc2c1=O
640 s | COc1ccc(NC(=O)NCCc2cn(C)c3ncccc23)c(OC)c1
943 s | CC(C)Oc1ccc(CNC(=O)c2nnc(-c3ccc(S(=O)(=O)N(C)C)cc3)o2)cc1
849 s | COC(=O)c1cccc(C(=O)NC2(c3nc(C)no3)CCCCC2)c1
879 s | COc1ccc(-c2noc(C3CCCN3C(=O)c3ccc(OC)nc3)n2)cc1 (stereo unspecified)

Continued, compound first:

Compound | RP-LC retention time
CCOC(=O)C1=C(CN2CCN(Cc3ccccc3)CC2)NC(=O)NC1c1cccc(OC)c1OC (stereo unspecified) | 660 s
CCCC(=O)NC1(c2nc(C(C)C)no2)CCCCC1 | 850 s
Cc1nc(-c2noc(-c3cccc(F)c3)n2)cn1CC(=O)Nc1ccccc1 | 856 s
Cc1cc(NC(=O)Nc2cccc3ccccc23)no1 | 896 s
COc1ccc(-c2nn3c(N4CCN(c5ccccn5)CC4)cc(C)nc3c2C)cc1 | 615 s
O=C(Cc1c[nH]c2ccccc12)Nc1cc(-c2ccccn2)no1 | 754 s
Cn1c(N2CCCC(C(=O)NC3CCCCCC3)C2)cc(=O)n(C)c1=O (stereo unspecified) | 715 s
Cc1cc(C)n(CC(=O)N2CCN(c3ccccc3O)CC2)n1 | 604 s
CC(C)CN1CCN(C(=O)c2cnc(-c3ccccc3)nc2-c2ccncc2)CC1 | 646 s
Cc1nc2cc(-c3noc(Cc4ccc(Br)cc4)n3)ccc2n(C)c1=O | 1020 s
O=C1COc2ccc(Cl)cc2N1Cc1nc(-c2cccc(-c3csc(C4CC4)n3)c2)no1 | 1300 s
CS(=O)(=O)Nc1ccc(C2(C(=O)NCc3ccccn3)CCCCC2)cc1 | 620 s
COc1cc2c(cc1CNC(=O)C1CC1)OCCCO2 | 709 s
Cc1oc(-c2[nH]ncc2C(=O)N2CCCC2)cc1S(=O)(=O)NCCCc1ccccc1 | 799 s
O=C1CC(Nc2ccc(N3CCCCC3)cc2)C(=O)N1c1ccccc1F (stereo unspecified) | 571 s
CCn1cnc(S(=O)(=O)N2CCC(C(=O)NCCC3=CCCCC3)CC2)c1 | 761 s
COCCCNC(=O)c1c(OCC(C)C)cc(=O)n2c1CCCCC2 | 638 s
COC(=O)c1sccc1NC(=O)N1CCc2c([nH]c3ccccc23)C1c1ccc(F)cc1 (stereo unspecified) | 1300 s
CC(C)Cn1cc(S(=O)(=O)Nc2ccccc2Cl)c2cccnc21 | 1020 s
Cc1occc1-c1nnc2sc(COc3ccccc3Cl)nn12 | 994 s
Cn1cc(CCNS(=O)(=O)c2ccccc2Br)c2cccnc21 | 741 s

Compound | RP-LC retention time
NC(=O)C1CCN(C(=O)CN2CCC(Cc3ccccc3)CC2)CC1 | 591 s
Cc1ccccc1NC(=O)c1nc2ccccc2[nH]c1=O | 735 s
CC1CCN(S(=O)(=O)c2ccc3nn(Cc4cccc(F)c4)c(=O)n3c2)CC1 | 781 s
CCCCNC(=O)CC1CCN(C(=O)c2[nH]c(C)c(C)c2C)CC1 | 764 s
O=C(NCCc1ccccc1)C1CCCN(C(=O)c2cccc(C(F)(F)F)c2)C1 (stereo unspecified) | 903 s
CC(CCc1ccccc1)NC(C)C(O)c1ccc(O)cc1 (stereo unspecified) | 712 s
Cc1ccc2c(Nc3ccc(F)c(C)c3)c(-c3nc(C)no3)cnc2n1 | 764 s
O=C1CN(C(=O)c2ccccc2F)c2ccccc2N1 | 645 s
CCN1C(=O)COc2ccc(-c3csc(NC(=O)c4cccc(Br)c4)n3)cc21 | 1100 s
Cc1cc2c(cc1S(=O)(=O)N1CCC(C(=O)NCCC3=CCCCC3)CC1)OCC(=O)N2 | 820 s
O=C(C1CCCCC1)N1CCCN(c2ncccc2-c2nc(C3CC3)no2)CC1 | 1010 s
CN(CC(=O)NC1CCCCC1)S(=O)(=O)c1c[nH]c(C(=O)N2CCCC2)c1 | 722 s
CC1CCCN(CCCNC(=O)CCCn2c(=O)c3cccn3c3ccc(F)cc32)C1 (stereo unspecified) | 650 s
CCCCn1c(=O)c2ccccc2n(Cc2nc(-c3ccccc3C)no2)c1=O | 1240 s
O=C(NCc1cccs1)C1CCN(S(=O)(=O)c2cc(C(=O)N3CCCCCC3)cs2)CC1 | 861 s
COCCOC1CN(C2CCN(Cc3cccc(C#N)c3)CC2)C12CCCCC2 (stereo unspecified) | 557 s
O=C(Nc1ccccc1Br)c1n[nH]nc1Nc1ccccc1 | 1100 s
O=C(NCCN1CCN(Cc2ccccc2)CC1)c1cc(=O)n2c(nc3ccccc32)s1 | 649 s
COc1cc(C(=O)NCC(=O)Nc2nc3ccccc3[nH]2)cc(OC)c1OC | 617 s
O=C(Cn1nc2c(N3CCCCCC3)nccn2c1=O)Nc1ccccc1F | 682 s
CCCc1noc(-c2cccnc2N2CCCN(Cc3ccc(Cl)cc3)CC2)n1 | 754 s

Compound | RP-LC retention time
Cc1ccn2c(NC(=O)c3cccc(F)c3)c(-c3ccccc3)nc2c1 | 670 s
COc1ccccc1NC1=NS(=O)(=O)c2ccccc21 | 769 s
Cn1nc(-c2nnc(-c3ccc(F)cc3)o2)c2c1CCN(C(=O)Nc1ccccc1)C2 | 833 s
COc1cc2c(cc1OC)C(C(=O)Nc1ccc(C(C)C)cc1)C(c1cccnc1)N(C)C2=O (stereo unspecified) | 720 s
O=C(C1CCN(c2cnc(N3CCCC3)nc2)CC1)N1CCOCC1 | 587 s
O=C(Cn1cccc(-c2nc(-c3ccc(Cl)cc3)no2)c1=O)Nc1ccc2c(c1)OCO2 | 916 s
COC(=O)Nc1nc2ccc(S(=O)c3ccccc3)cc2[nH]1 (stereo unspecified) | 658 s
Cc1ccc(C)c(S(=O)(=O)N2CC=C(c3cn(C)c4ncccc34)CC2)c1 | 1070 s
O=C(NCCN1CCCC1)C1CCN(c2cnn(CC3CC3)c(=O)c2)C1 (stereo unspecified) | 577 s
CC(=O)N1c2ccc(S(=O)(=O)N3CCCCC3)cc2CC1C(=O)N(C)Cc1ccccc1 (stereo unspecified) | 864 s
Cc1cccc(-c2ncccc2CNS(=O)(=O)Cc2ccccc2)c1 | 684 s
CC(C)N1CCC(OCCCNC(=O)CN2CCCc3nc(C4CC4)ncc3C2=O)CC1 | 576 s
COC(=O)c1c(NCc2ccccc2Cl)c2ccccc2[nH]c1=O | 766 s
CCC(CC)C(=O)Nc1cccc(C(=O)Nc2nc(-c3ccccc3)cs2)c1 | 1070 s
Cc1cccc(N2CCN(C(=O)C3CCN(S(=O)(=O)c4cn(C)c(C)n4)CC3)CC2C)c1 (stereo unspecified) | 667 s
CC1=C(C(=O)N(CC(=O)NCc2ccccc2)c2ccc(Cl)cc2)SCCO1 | 934 s
CC(C)NC(=O)CN1C(=O)C2CCCCN2c2ccc(S(=O)(=O)N(C)C)cc21 (stereo unspecified) | 781 s
Cc1cc(Cl)ccc1S(=O)(=O)N1CCCC1c1nc(-c2cccc(F)c2)no1 (stereo unspecified) | 1220 s
Cn1cc(C(=O)N2CCOCC2)c2cccnc21 | 601 s
